Measurements from a melting point compilation (Tetko et al.; mined from patent text by program, amines drawn as free bases though some values may be those of a salt).

Row | melting point [°C] | SMILES
1 | 66 to 68 | CC(=O)c1cc([N+](=O)[O-])c(F)cc1Cl
2 | 146 to 147 | O=C1CC2CSc3ccccc3C2=NN1c1ccc(Cl)cc1 (configuration not stated)
3 | 130 to 132 | CC(C)CN1N=Cc2cc(S(N)(=O)=O)sc2S1(=O)=O
4 | 78 to 79 | CC(C)(C)C=C/C=C/C(C)(C)C
5 | 201 to 203 | c1ccc(-c2ccc3cnc(NCc4cccnc4)nn23)cc1
6 | 153 to 154 | O=C(NC1=NCCCC1)Nc1ccccc1
7 | 119 to 120 | O=C(NC1CCN(C2CCCCC2)C1)c1cccc2ccccc12 (configuration not stated)
8 | 244 | NC(=O)c1cc(C(=O)c2ccccc2)ccc1[N+](=O)[O-]
9 | 154 to 156 | COc1c(C(=O)O)nc(Br)c(Cl)c1N
10 | 176 to 178 | Cc1ccc2c(c1)C(O)(C1=CCN(C)CC1)CC2c1ccc(F)cc1 (configuration not stated)
11 | 55 to 56 | Nc1ccc(Cl)cc1C(=O)C(F)(F)Cl
12 | 238 to 240 | COc1nc2cc([N+](=O)[O-])c(C)c(C(=O)Nc3ccccc3)c2nc1OC
13 | 164 to 166 | CCC1c2cccn2-c2ccc(F)cc2N1S(=O)(=O)c1ccc(OC)c(C)c1 (configuration not stated)
14 | 65 to 66 | CC(=O)CC(=O)NC1CC1
15 | 186 to 187 | C=CC(=O)NCNC(=O)CCS(=O)(=O)CCCl
16 | 101 to 103 | CC12CC3CC(C)(C1)CC(C(=O)NCc1cccs1)(C3)C2
17 | 216 to 218 | O=C(Nc1ccc(Cc2ccc(O)c(O)c2)cc1)C1CSc2ccccc2C1=O (configuration not stated)
18 | 122 to 123 | C#Cc1ccc(C=O)cc1
19 | 135 to 136 | C=CCCCCCCCCCOc1ccc(-c2ccc(O)cc2)cc1
20 | 105 to 107 | O=C1CSCN1CCCCN1CCN(c2ccc3ccccc3n2)CC1
21 | 136 to 139 | C=CCNc1cc(F)ccc1C(=O)O
22 | 60 to 63 | CCOP(=O)(/C=C/c1cn(-c2ccccc2)nc1OCc1ccc(OCc2nc(-c3ccco3)oc2C)c(OC)c1)OCC
23 | 145 to 146 | CN(C)c1cccc2c(S(=O)(=O)Nc3ccc(Cl)nc3)cccc12
24 | 123 to 124 | Cc1cccc2cc(CN(Cc3cc(C(F)(F)F)cc(C(F)(F)F)c3)c3ncc(N4CCOCC4)cn3)c(N(CC3CC3)CC3CC3)nc12

Row | melting point [°C] | SMILES
25 | 151 to 152 | COC(=O)C=C1CCC(c2ccc(O)cc2)CC1 (configuration not stated)
26 | 266 to 268 | CC(C)n1nc(-c2c(-c3ccccc3)nc(N)nc2-n2cncn2)ccc1=O
27 | 271 to 272 | C=C(Nc1nc(-c2ccccc2)c(-c2nc3ccccc3c(=O)n2-c2ccccc2)s1)c1ccco1
28 | 50 to 52 | CC(=O)c1ccc(C2=CCC(C)CC2)cc1 (configuration not stated)
29 | 60 | CCOC(=O)NOC(=O)CCCCC(=O)ONC(=O)OCC
30 | 246 to 249 | COc1ccc2[nH]c(C=Cc3ccc(OC)c(OC)c3)nc2c1
31 | 290 | CCCn1c(=O)c2[nH]c(-c3ccc4c(c3)OCCO4)nc2n(Cc2ccccc2)c1=O
32 | 342 to 343 | O=c1c2ccc(Cl)cc2[nH]c2c(=O)n(-c3ccc(Cl)cc3Cl)nc(O)c12
33 | 214 to 215 | CC(C)(C)c1cc(CCc2ccccc2NC(=O)NCc2ccncc2)cc(C(C)(C)C)c1O
34 | 230 | N#Cc1ccc(N(Cc2ccc3c(c2)NS(=O)(=O)O3)n2ccnc2)cc1
35 | 122 to 123 | OCCNN=C(Cc1ccncc1)c1ccc(F)cc1
36 | 152 to 154 | COc1ccc(C2=Cc3ccc(OCc4ccccc4)cc3OC2)cc1
37 | 210 | O=C(O)CCCN1CCc2ccc(S(=O)(=O)Nc3ccc(Cl)cc3)cc2C1
38 | 80 to 81 | COc1ccc(OCC2(CO)CC2)cc1
39 | 159 to 162 | Cc1nc2ccc3cccnc3c2nc1C
40 | 158 to 160 | O=[N+]([O-])c1ccc(C(Nc2ccccc2)P(=O)(Oc2ccccc2)Oc2ccccc2)cc1 (configuration not stated)
41 | 261 to 263 | COc1cc(C(=O)Nc2nnn[nH]2)nc(-c2ccc(N(C)C)cc2)c1
42 | 235 to 240 | O=C(O)c1ccc2ccccn2c1=O
43 | 89.5 to 90.5 | CC(=O)OCC(C)(CC(C)(C)C)C(=O)O (configuration not stated)
44 | 156 to 157 | CC(C)(C)c1cc(C(=O)c2ccccc2)cc(CN2CCC(O)CC2)c1O
45 | 287 | Cc1cc(-c2cc(C(F)(F)F)nc(-n3cnc(-c4ccc(S(N)(=O)=O)cc4)c3)n2)ccc1C(F)(F)F
46 | 93 to 95 | COc1cc(C(C)=O)ccc1OCCCN1CCC(c2nsc3ccccc23)CC1
47 | 187 to 189 | O=C(Nc1ccc(-n2nc(C(F)(F)F)cc2C(F)(F)F)cc1)c1c(F)ccc([N+](=O)[O-])c1F
48 | 90 | COc1ccc(C(O)c2cccc3c2ccn3S(=O)(=O)c2ccc(C)cc2)cc1 (configuration not stated)

Row | melting point [°C] | SMILES
49 | 136 to 138 | CC(=O)NC1=NN(c2ccc(F)cc2)C(C)C1 (configuration not stated)
50 | 150 to 154 | Cc1noc(C)c1S(=O)(=O)n1c(CCCC(=O)O)cc2cc(Cl)ccc21
51 | 123 to 124 | O=c1cc(-c2cccnc2)oc2ccccc12
52 | 205 to 210 | O=C(O)Cc1c(C(=O)O)c2cc(Oc3ccc(Cl)c(Cl)c3)ccc2n1-c1ccc(OCC(F)(F)F)cc1
53 | 80 to 82 | C=C(Br)n1ccnc1[N+](=O)[O-]
54 | 148 to 149 | COC(=O)c1ccc(Cc2c[nH]c3ccc(C#N)cc23)c(OC)c1
55 | 238 to 239 | NC(=O)c1cccc([N+](=O)[O-])c1N
56 | 177 to 178 | COc1ccc(S(=O)(=O)Nc2cccc(C)c2N)cc1
57 | 181 to 182 | COc1ccc(NC(=O)c2ccccc2NS(=O)(=O)c2ccc(C)cc2)cc1Cl
58 | 132 to 135 | O=C(Nc1ccc(OC(F)(F)C(F)F)cc1)N1CC(c2ccccc2)C(c2ccc(OC(F)F)cc2)=N1 (configuration not stated)
59 | 83 | COP(=O)(OC)c1cc(Oc2ccc(C(F)(F)F)cc2Cl)ccc1[N+](=O)[O-]
60 | 165 | CN(C)C=C(C#N)C(=O)c1ccc(-n2ccnc2)cc1
61 | 104 to 107 | COc1ccc(C(=O)c2ccccn2)c(Cl)c1Cl
62 | 160 to 162 | COC(=O)c1c(Oc2nc(OC)cc(OC)n2)ccc2ncccc12
63 | 81.5 to 82.5 | O=C(NNC(=O)c1ccccc1C(F)(F)F)c1ccccc1Cl
64 | 144 to 147 | C=CCOCc1c(C=O)sc2c(=O)c(C(=O)NCc3ccc(Cl)cc3)cn(C)c12
65 | 76 | Clc1cc2c(cc1Cl)CC=C2
66 | 165 to 167 | O=C(O)C1(c2ccc(Nc3nc(N4CCC(O)CC4)nc4c3CCC4)cc2)CCC1
67 | 108 to 109 | O=C1OC(O)c2ccc(Cl)cc21 (configuration not stated)
68 | 169 to 171 | O=C1[C@H]2CCC[C@H]2Nc2ccccc2N1Cc1cccc([N+](=O)[O-])c1 (relative stereo)
69 | 139 to 141 | O=C1Nc2ccccc2CCC1NC(CCc1ccccc1)C(=O)OCc1ccccc1 (configuration not stated)
70 | 230 to 232 | NNC(=O)c1cc(N2CCN(c3ccc([N+](=O)[O-])cc3)CC2)ccn1
71 | 45 to 50 | O=C1Nc2ccc([N+](=O)[O-])cc2/C1=C(/Nc1ccc(CN2CCCC2)cc1)c1ccccc1
72 | 150 to 152 | COc1ccc(C2=NN(C3CCN(S(=O)(=O)c4cccc(C)c4)CC3)C(=O)C(C)(C)C2)cc1OC

Row | melting point [°C] | SMILES
73 | 116 to 117 | Cc1cccc(-c2nc(CCOc3ccc(/C=C/CO)cc3)c(C)o2)c1
74 | 234 to 235 | O=C(Nc1ccncc1)c1ccc(-n2nc(C(F)(F)F)cc2C(F)(F)F)cc1
75 | 159 to 160 | CCNC(=O)Oc1ccc(-c2nn(C3CCCC3)c3c(F)cccc23)cc1
76 | 99 to 100 | COc1ccc(C(=C/C=C/C(=O)NCCCCCc2ccccn2)c2ccc(OC)cc2)cc1
77 | > 250 | O=c1[nH]c2cscc2c(=O)n1CCN1CCN(c2ccc(Cl)cc2)CC1
78 | 161 | c1ccc2c(c1)C[C@H]1CSC(=Nc3cc[nH]n3)N1C2
79 | 47 to 49 | CC1(C)c2ccc(CCN3CCN(c4nsc5ccccc45)CC3)cc2C(C)(C)C1O (configuration not stated)
80 | 191 to 193 | CN(CCN(C)S(=O)(=O)c1ccc(F)cc1)C(=O)c1ccc(Nc2ccnc3cc(C(F)(F)F)ccc23)cc1
81 | 179 | CCc1cn2c(N)c(Cl)cc(C(=O)NC3CCN(CCCOC)CC3)c2n1
82 | 350 to 355 | CCCCn1c(=O)c2nc(-c3ccc(/C=C/C(=O)O)cc3)[nH]c2n(CCCC)c1=O
83 | 224 to 226 | Cc1oc2cc(N)ccc2c(=O)c1C
84 | 150 to 151 | COC(=O)CS(=O)Cc1cccc(-c2nc(=O)c3ccccc3s2)n1 (configuration not stated)
85 | 120 to 121 | O=Cc1c(OCc2ccccc2)ccc2ccccc12
86 | 115 to 117 | COc1ccc(CNc2nnc(N(C)CCCO)c3ccc(Cl)cc23)cc1Cl
87 | 82 to 85 | CC(C)(C)C(=O)Oc1ccccc1-c1nnn[nH]1
88 | 140 to 142 | NC(=S)NN=C(CCCOC(=O)Nc1ccccc1)c1ccccc1
89 | 193 to 194 | CC(C)(C)c1cc(C2SC(CC(=O)N3CCCC3)C(=O)N2CCCCl)cc(C(C)(C)C)c1O (configuration not stated)
90 | 87 to 90 | CN(c1ccc(Cl)nc1)S(C)(=O)=O
91 | 162 to 164 | Cc1[nH]ccc(=O)c1OCc1ccccc1
92 | 53 to 58 | O=C(C1CCCCO1)N1CCNCC1 (configuration not stated)
93 | 164 to 165 | COc1cc2c3ccc(OC)c(OC)c3n(S(C)(=O)=O)c2cc1OC
94 | 83 | CS(=O)(=O)c1ccc(-c2ccccc2C=C2CCCCC2)cc1
95 | 130 to 131 | OC1(c2cccn2Cc2ccccc2F)CCN(CCc2ccccc2)CC1

Row | SMILES | melting point [°C]
96 | CN1C(=O)N(C)C(=O)C(C(N)=O)(c2ccc(Cl)cc2)C1=O | 225 to 227
97 | c1cc2[nH]ncc2cc1NC1CC2CCC(C1)N2 (configuration not stated) | 236 to 238
98 | COc1cc(OC)c2c(c1)c(C(=O)C(=O)NC1=CC(=O)OC1)cn2Cc1ccc(Cl)cc1 | 280 to 282
99 | CCCCCCCCCCCCC(=O)c1cn(CCCC(=O)O)c2ccccc12 | 76 to 78
100 | CCN(CC)C(=O)c1ccc(C(=C2CCN(Cc3ccccc3)CC2)c2cccc(OC)c2)cc1 | 100 to 110
101 | COC(=O)c1ccc(CC(C)NCC(O)c2ccc(O)c(CO)c2)cc1C(=O)OC (configuration not stated) | 124 to 129
102 | COc1ccc(-c2ccco2)c2c1c(CCN(C)C)cn2C | 90 to 93
